pEC50: −log10 of the molar value. Like-named read-outs stand apart in the source and are kept apart here. Numbered stars: 1 amine (or outer) side, 2 acyl side, 3 side chain; on linkers, the order of the positions; unused ones are H or OH. Square brackets hold non-standard residues; d marks the D form. Side chains are listed from the residue outwards. Peptide text beside a SMILES is read from it. * marks the point of attachment. C18 diacid = O=C(O)CCCCCCCCCCCCCCCCC(=O)*; γGlu = O=C(O)[C@H](CCC(=O)[*:2])N[*:1]; Palmitoyl = CCCCCCCCCCCCCCCC(=O)*; αMeF = C[C@](N)(Cc1ccccc1)C(=O)O; αMeK = C[C@](N)(CCCCN)C(=O)O; αMeS = C[C@](N)(CO)C(=O)O; AEEA = NCCOCCOCC(=O)O; Aib = CC(C)(N)C(=O)O

What is called pEC50 is the negative decadic logarithm of the EC50, by convention in mol/L.

What all share (type): cell-based
Assay [1] addresses T1, human GLP-1 receptor (GLP-1R) (Homo sapiens, UniProt P43220).
T1 construct: expressed in transfected cells
The assay can be described thus: cAMP assay, human GLP-1R cells. Conditions: for pEC50: cAMP assay; for EC50: mean of n1 and n2, read-out: Mean pM GLP-1R. A digest of the protocol: (§1)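 Peptide-stimulated cAMP measured by two-step HTRF after a 30 min room-temperature incubation with receptor-expressing cells (hGLP-1R, hGIPR at 1×10^5 cells/ml; hGCGR at 2×10^5 cells/ml). Duplicate dilutions; EC50 from 4-parameter logistic fit of % Delta F.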
In general terms: Cyclic AMP is a second messenger, typically raised through Gs and lowered through Gi signalling.

Assay [2] concerns the target T2, human glucose-dependent insulinotropic peptide receptor (GIPR) (Homo sapiens, UniProt P48546).
T2 construct: expressed in transfected cells
T2 sequence (P48546 22-466): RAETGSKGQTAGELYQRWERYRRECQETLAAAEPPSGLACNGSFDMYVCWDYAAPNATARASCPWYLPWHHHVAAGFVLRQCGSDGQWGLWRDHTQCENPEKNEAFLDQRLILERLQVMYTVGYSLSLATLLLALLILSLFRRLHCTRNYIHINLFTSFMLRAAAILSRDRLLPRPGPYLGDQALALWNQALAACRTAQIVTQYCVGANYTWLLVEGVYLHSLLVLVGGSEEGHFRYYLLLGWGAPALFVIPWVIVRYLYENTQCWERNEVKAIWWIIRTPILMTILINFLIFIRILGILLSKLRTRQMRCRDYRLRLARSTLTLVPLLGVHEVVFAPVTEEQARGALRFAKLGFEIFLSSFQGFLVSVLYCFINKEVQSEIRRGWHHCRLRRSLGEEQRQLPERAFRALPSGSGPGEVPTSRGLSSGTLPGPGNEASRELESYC
Kind of assay: cAMP assay, human GIPR cells. Conditions: cAMP assay. The procedure, abridged: as §1

Assay [3] addresses T3, human glucagon receptor (GCGR) (Homo sapiens, UniProt P47871).
T3 construct: expressed in transfected cells
The assay can be described thus: cAMP assay, human GCGR cells. Conditions: cAMP assay. The procedure, abridged:
as §1

Where [4] appears, read: first determination (n1), read-out: Primary assay EC50 GLP-1R n1.
Where [5] appears, read: second determination (n2), read-out: Primary assay EC50 GLP-1R n2.
Setting [6] is: first determination (n1), read-out: Primary assay EC50 GIP-R (n1).
Where [7] appears, read: second determination (n2), read-out: Primary assay EC50 GIP-R (n2).
Setting [8] is: first determination (n1), read-out: Primary assay EC50 Gluc-R (n1).
[9] abbreviates: second determination (n2), read-out: Primary assay EC50 Gluc-R (n2).

T1 sequence (P43220 24-463): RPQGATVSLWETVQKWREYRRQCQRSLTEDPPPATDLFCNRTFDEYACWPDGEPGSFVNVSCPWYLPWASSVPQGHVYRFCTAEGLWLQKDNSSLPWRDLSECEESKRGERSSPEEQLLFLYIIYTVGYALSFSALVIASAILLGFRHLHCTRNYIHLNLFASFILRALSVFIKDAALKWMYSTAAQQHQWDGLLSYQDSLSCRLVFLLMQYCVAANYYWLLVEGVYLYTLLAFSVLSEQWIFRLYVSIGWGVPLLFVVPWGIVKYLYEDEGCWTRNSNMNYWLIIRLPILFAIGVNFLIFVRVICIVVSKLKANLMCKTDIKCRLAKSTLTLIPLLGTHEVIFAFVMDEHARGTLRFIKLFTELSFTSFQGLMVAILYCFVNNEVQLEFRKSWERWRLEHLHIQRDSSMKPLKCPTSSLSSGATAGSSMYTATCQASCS
T3 sequence (P47871 26-477): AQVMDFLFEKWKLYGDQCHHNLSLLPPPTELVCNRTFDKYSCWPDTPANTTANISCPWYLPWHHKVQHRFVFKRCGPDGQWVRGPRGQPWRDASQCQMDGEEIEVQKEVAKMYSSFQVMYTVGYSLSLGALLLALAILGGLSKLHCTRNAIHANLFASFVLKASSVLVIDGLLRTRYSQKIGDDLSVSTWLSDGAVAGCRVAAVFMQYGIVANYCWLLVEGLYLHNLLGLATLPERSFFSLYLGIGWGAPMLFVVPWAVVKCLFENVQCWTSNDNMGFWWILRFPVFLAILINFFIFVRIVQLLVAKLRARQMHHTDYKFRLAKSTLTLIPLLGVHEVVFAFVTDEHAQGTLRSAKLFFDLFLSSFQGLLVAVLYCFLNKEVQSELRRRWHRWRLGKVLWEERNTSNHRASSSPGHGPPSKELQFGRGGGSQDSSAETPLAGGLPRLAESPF

`CC[C@H](C)[C@H](NC(=O)[C@](C)(Cc1ccccc1)NC(=O)[C@H](CCC(=O)O)NC(=O)[C@](C)(CCCCN)NC(=O)[C@H](C)NC(=O)[C@H](C)NC(=O)[C@H](CCC(=O)O)NC(=O)CNC(=O)[C@H](CCC(=O)O)NC(=O)[C@H](CC(C)C)NC(=O)[C@](C)(Cc1ccccc1)NC(=O)[C@H](CO)NC(=O)[C@](C)(CO)NC(=O)[C@@H](NC(=O)[C@H](CC(=O)O)NC(=O)[C@H](CO)NC(=O)[C@@H](NC(=O)[C@](C)(Cc1ccccc1)NC(=O)[C@H](CO)NC(=O)[C@H](CCCCNC(=O)COCCOCCNC(=O)COCCOCCNC(=O)CC[C@H](NC(=O)CCCCCCCCCCCCCCCCC(=O)O)C(=O)O)NC(=O)[C@H](CCC(=O)O)NC(=O)C(C)(C)NC(=O)[C@@H](N)Cc1c[nH]cn1)[C@@H](C)O)C(C)C)C(=O)N[C@@H](C)C(=O)N[C@@](C)(Cc1ccccc1)C(=O)N[C@H](C(=O)N[C@H](C(=O)N[C@@](C)(CCCCN)C(=O)NCC(=O)NCC(N)=O)C(C)C)C(C)C` [compound 125] (H-H[Aib]EK([AEEA-AEEA-γGlu-C18 diacid])S[αMeF]TSDV[αMeS]S[αMeF]LEGEAA[αMeK]E[αMeF]IA[αMeF]VV[αMeK]GG-NH2; N-terminus assumed): the pEC50 in assay [1] (setting [4]), in assay [1] (setting [5]), in assay [2] (setting [6]), in assay [2] (setting [7]), in assay [3] (setting [8]) and in assay [3] (setting [9]) was not above 7.60 each time.
As to `CC[C@H](C)[C@H](NC(=O)[C@](C)(Cc1ccccc1)NC(=O)[C@H](CCC(=O)O)NC(=O)[C@](C)(CCCCN)NC(=O)[C@H](C)NC(=O)[C@H](C)NC(=O)[C@H](CCC(=O)O)NC(=O)CNC(=O)[C@H](CCC(=O)O)NC(=O)[C@H](CC(C)C)NC(=O)[C@](C)(Cc1ccccc1)NC(=O)[C@H](CO)NC(=O)[C@H](CO)NC(=O)[C@@H](NC(=O)[C@H](CC(=O)O)NC(=O)[C@](C)(CO)NC(=O)[C@@H](NC(=O)[C@](C)(Cc1ccccc1)NC(=O)[C@H](CO)NC(=O)CNC(=O)[C@H](CCC(=O)O)NC(=O)C(C)(C)NC(=O)[C@@H](N)Cc1c[nH]cn1)[C@@H](C)O)C(C)C)C(=O)N[C@@H](C)C(=O)N[C@@](C)(Cc1ccccc1)C(=O)N[C@H](C(=O)N[C@H](C(=O)N[C@@](C)(CCCCN)C(=O)NCC(=O)NCC(N)=O)C(C)C)C(C)C` [compound 16], the pEC50 in assay [1] (setting [4]) was 7.96; in assay [1] (setting [5]) it was 8.03; in assay [2] (setting [6]), not above 7.00; in assay [2] (setting [7]), not above 7.00; in assay [3] (setting [8]), not above 7.00; in assay [3] (setting [9]), not above 7.00. Further, the EC50 in assay [1] is 10100 pM.
On to `CCCCCCCCCCCC(=O)N[C@@H](CCC(=O)NCCCC[C@H](NC(=O)[C@@H](NC(=O)[C@@H](NC(=O)[C@](C)(Cc1ccccc1)NC(=O)[C@H](C)NC(=O)[C@@H](NC(=O)[C@](C)(Cc1ccccc1)NC(=O)[C@H](CCC(=O)O)NC(=O)[C@](C)(CCCCN)NC(=O)[C@H](C)NC(=O)[C@H](C)NC(=O)[C@H](CCC(=O)O)NC(=O)CNC(=O)[C@H](CCC(=O)O)NC(=O)[C@H](CC(C)C)NC(=O)[C@](C)(Cc1ccccc1)NC(=O)[C@H](CO)NC(=O)[C@](C)(CO)NC(=O)[C@@H](NC(=O)[C@H](CC(=O)O)NC(=O)[C@H](CO)NC(=O)[C@@H](NC(=O)[C@](C)(Cc1ccccc1)NC(=O)[C@H](CO)NC(=O)CNC(=O)[C@H](CCC(=O)O)NC(=O)C(C)(C)NC(=O)[C@@H](N)Cc1c[nH]cn1)[C@@H](C)O)C(C)C)[C@@H](C)CC)C(C)C)C(C)C)C(=O)NCC(=O)NCC(N)=O)C(=O)O` [compound 164], for which the pEC50 in assay [1] (setting [4]) is 10.66; in assay [1] (setting [5]), 11.11; in assay [2] (setting [6]) it was not above 7.55; in assay [2] (setting [7]) it was not above 7.55; in assay [3] (setting [8]), not above 7.55; in assay [3] (setting [9]), not above 7.55. In assay [1], the EC50 was determined as 14.6 pM.
For `CCCCCCCCCCCCCCCC(=O)N[C@@H](CCC(=O)NCCCC[C@H](NC(=O)CNC(=O)[C@H](CCC(=O)O)NC(=O)C(C)(C)NC(=O)[C@@H](N)Cc1c[nH]cn1)C(=O)N[C@@](C)(Cc1ccccc1)C(=O)N[C@H](C(=O)N[C@@H](CO)C(=O)N[C@@H](CC(=O)O)C(=O)N[C@H](C(=O)N[C@@](C)(CO)C(=O)N[C@@H](CO)C(=O)N[C@@](C)(Cc1ccccc1)C(=O)N[C@@H](CC(C)C)C(=O)N[C@@H](CCC(=O)O)C(=O)NCC(=O)N[C@@H](CCC(=O)O)C(=O)N[C@@H](C)C(=O)N[C@@H](C)C(=O)N[C@@](C)(CCCCN)C(=O)N[C@@H](CCC(=O)O)C(=O)N[C@@](C)(Cc1ccccc1)C(=O)N[C@H](C(=O)N[C@@H](C)C(=O)N[C@@](C)(Cc1ccccc1)C(=O)N[C@H](C(=O)N[C@H](C(=O)N[C@@](C)(CCCCN)C(=O)NCC(=O)NCC(N)=O)C(C)C)C(C)C)[C@@H](C)CC)C(C)C)[C@@H](C)O)C(=O)O` [compound 95] (H-H[Aib]EGK([γGlu-Palmitoyl])[αMeF]TSDV[αMeS]S[αMeF]LEGEAA[αMeK]E[αMeF]IA[αMeF]VV[αMeK]GG-NH2; N-terminus assumed), the pEC50 in assay [1] (setting [4]) is 9.59; in assay [1] (setting [5]), 9.72; in assay [2] (setting [6]), not above 7.55; in assay [2] (setting [7]) it was not above 7.55; in assay [3] (setting [8]) it was not above 7.55; in assay [3] (setting [9]), not above 7.55. Also, in assay [1], the EC50 was 224 pM.
As for `CC[C@H](C)[C@H](NC(=O)[C@H](Cc1ccccc1)NC(=O)[C@H](CCC(=O)O)NC(=O)[C@H](CCCCN)NC(=O)[C@H](C)NC(=O)[C@H](C)NC(=O)[C@H](CCC(N)=O)NC(=O)CNC(=O)[C@H](CCC(=O)O)NC(=O)[C@H](CC(C)C)NC(=O)[C@H](Cc1ccc(O)cc1)NC(=O)[C@H](CO)NC(=O)C(C)(C)NC(=O)[C@@H](NC(=O)[C@H](CC(=O)O)NC(=O)C(C)(C)NC(=O)[C@@H](NC(=O)[C@H](Cc1ccccc1)NC(=O)[C@@H](NC(=O)CNC(=O)[C@H](CCC(=O)O)NC(=O)C(C)(C)NC(=O)[C@@H](N)Cc1c[nH]cn1)[C@@H](C)O)[C@@H](C)O)C(C)C)C(=O)N[C@@H](C)C(=O)N[C@@H](Cc1c[nH]c2ccccc12)C(=O)N[C@@H](CC(C)C)C(=O)N[C@H](C(=O)N[C@@H](CCCCN)C(=O)NCC(=O)N[C@@H](CCCNC(=N)N)C(N)=O)C(C)C` [compound 24] (H-H[Aib]EGTFT[Aib]DV[Aib]SYLEGQAAKEFIAWLVKGR-NH2), the negative-log EC50 (pEC50) was 8.48 in assay [1] (setting [4]); 8.10 in assay [1] (setting [5]); not above 6.13 in assay [2] (setting [6]); not above 6.13 in assay [2] (setting [7]); not above 6.13 in assay [3] (setting [8]); not above 6.13 in assay [3] (setting [9]). The EC50 in assay [1] is 5600 pM.
With `CCCCCCCCCCCCCCCC(=O)N[C@@H](CCC(=O)NCCCC[C@H](NC(=O)[C@H](C)NC(=O)[C@H](C)NC(=O)[C@H](CCC(=O)O)NC(=O)CNC(=O)[C@H](CCC(=O)O)NC(=O)[C@H](CC(C)C)NC(=O)[C@](C)(Cc1ccccc1)NC(=O)[C@H](CO)NC(=O)[C@H](CO)NC(=O)[C@@H](NC(=O)[C@H](CC(=O)O)NC(=O)[C@H](CO)NC(=O)[C@@H](NC(=O)[C@](C)(Cc1ccccc1)NC(=O)[C@H](CO)NC(=O)CNC(=O)[C@H](CCC(=O)O)NC(=O)C(C)(C)NC(=O)[C@@H](N)Cc1c[nH]cn1)[C@@H](C)O)C(C)C)C(=O)N[C@@H](CCC(=O)O)C(=O)N[C@@](C)(Cc1ccccc1)C(=O)N[C@H](C(=O)N[C@@H](C)C(=O)N[C@@](C)(Cc1ccccc1)C(=O)N[C@H](C(=O)N[C@H](C(=O)N[C@@H](CCCCN)C(=O)NCC(=O)NCC(N)=O)C(C)C)C(C)C)[C@@H](C)CC)C(=O)O` [compound 41], the pEC50 was 9.62 in assay [1] (setting [4]); 10.29 in assay [1] (setting [5]); not above 7.03 in assay [2] (setting [6]); not above 7.55 in assay [2] (setting [7]); not above 7.03 in assay [3] (setting [8]); not above 7.55 in assay [3] (setting [9]). Also, the EC50 in assay [1] worked out at 147 pM.

The values above are taken from patent US10414811B2, “Protease-resistant lipidated GLP-1 analogs” (MEDIMMUNE LIMITED, priority 2015, dated 2019).
